Assay results as given in patent publication US20260062443A1 (ALEXION PHARMACEUTICALS, INC., priority 2022, published 2026).

Molecular target: T1, Human complement C1s enzyme (Homo sapiens, UniProt P09871)
T1 sequence (P09871 438-688 limits assumed): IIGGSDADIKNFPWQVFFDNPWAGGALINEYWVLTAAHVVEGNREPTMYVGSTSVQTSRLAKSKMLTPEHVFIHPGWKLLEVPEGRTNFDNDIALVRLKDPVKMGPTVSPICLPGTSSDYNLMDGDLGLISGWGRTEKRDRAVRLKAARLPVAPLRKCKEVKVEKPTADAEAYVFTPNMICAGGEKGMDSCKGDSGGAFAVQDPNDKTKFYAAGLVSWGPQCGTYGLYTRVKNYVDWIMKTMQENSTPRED
T1 sequence (P09871 16-437 partner limits assumed): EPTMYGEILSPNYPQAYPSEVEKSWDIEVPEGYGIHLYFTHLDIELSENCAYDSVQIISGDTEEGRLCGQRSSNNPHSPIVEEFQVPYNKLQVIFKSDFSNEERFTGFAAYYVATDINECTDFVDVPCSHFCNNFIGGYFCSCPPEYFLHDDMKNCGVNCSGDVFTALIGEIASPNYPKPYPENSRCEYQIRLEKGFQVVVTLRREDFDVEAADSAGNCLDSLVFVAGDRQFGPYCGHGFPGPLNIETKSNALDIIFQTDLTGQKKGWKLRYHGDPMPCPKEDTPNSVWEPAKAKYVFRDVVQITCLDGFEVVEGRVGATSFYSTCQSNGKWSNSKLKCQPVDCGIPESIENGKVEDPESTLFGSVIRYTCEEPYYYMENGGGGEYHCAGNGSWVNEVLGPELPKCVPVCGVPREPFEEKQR
Assay: Human C1s enzyme assay
Format: biochemical
Conditions: human complement C1s enzyme 1.16 nM, substrate Z-L-Lys-SBzl 100 μM, 5 min preincubation; read-out: IC50 (Stars), C1s Inhibiting Activity
Procedure, shortened: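 IC50 from nonlinear regression of reaction rates versus compound concentration, with rates taken from A405 recorded at 30 s intervals over 30 min after adding 100 μM Z-L-Lys-SBzl plus 100 μM DTNB. Enzyme was human C1s purified from serum, 1.16 nM, given 5 min compound preincubation at room temperature, pH 7.5 Tris/1 M NaCl.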

SMILES	IC50 [nM]
O=C(NCC(=O)N1C[C@H](OC(F)F)C[C@H]1C(=O)NCc1ccc2[nH]ncc2n1)c1ccc2c(c1)Oc1ccccc1S2 [Compound 227, (2S,4R)-N-((1H-pyrazolo[4,3-b]pyridin-5-yl)methyl)-4-(difluoromethoxy)-1-((phenoxathiine-3-carbonyl)glycyl)pyrrolidine-2-carboxamide]	> 1000
Cc1cccc2c1oc1ccc(C(=O)NCC(=O)N3CCC[C@H]3C(=O)NCc3cc4cnccc4[nH]3)cc12 [Compound 336, (S)-N-((1H-pyrrolo[3,2-c]pyridin-2-yl)methyl)-1-((6-methyldibenzo[b,d]furan-2-carbonyl)glycyl)pyrrolidine-2-carboxamide]	< 100
Nc1noc2cc(CNC(=O)[C@@H]3C[C@@H](OC(F)F)CN3C(=O)CNC(=O)c3ccc4c(c3)Oc3ccccc3S4)ccc12 [Compound 232, (2S,4R)-N-((3-aminobenzo[d]isoxazol-6-yl)methyl)-4-(difluoromethoxy)-1-((phenoxathiine-3-carbonyl)glycyl)pyrrolidine-2-carboxamide]	> 1000
C[C@@H](NC(=O)[C@@H]1C[C@](F)(CF)CN1C(=O)CNC(=O)c1ccc(Oc2ccc(F)cc2)cc1)c1cc2cnccc2[nH]1 [Compound 89, (2S,4R)-N-((R)-1-(1H-pyrrolo[3,2-c]pyridin-2-yl)ethyl)-4-fluoro-4-(fluoromethyl)-1-((4-(4-fluorophenoxy)benzoyl)glycyl)pyrrolidine-2-carboxamide]	> 1000
O=C(NCC(=O)N1CC2(C[C@H]1C(=O)NCc1ccc[nH]1)OCCO2)c1ccc(Oc2ccccc2)cc1 [Compound 14, (S)-N-((1H-pyrrol-2-yl)methyl)-7-((4-phenoxybenzoyl)glycyl)-1,4-dioxa-7-azaspiro[4.4]nonane-8-carboxamide]	> 1000
O=C(NCC(=O)N1CC2(C[C@H]1C(=O)NCc1cc3cnccc3[nH]1)OCCO2)c1ccc2c(c1)sc1ccccc12 [Compound 179, (S)-N-((1H-pyrrolo[3,2-c]pyridin-2-yl)methyl)-7-((dibenzo[b,d]thiophene-3-carbonyl)glycyl)-1,4-dioxa-7-azaspiro[4.4]nonane-8-carboxamide]	< 100
C[C@@H](NC(=O)[C@@H]1C[C@@H](OC(F)F)CN1C(=O)CN1Cc2cc(-c3ccc(F)cc3Cl)ccc2C1=O)c1cc2cnccc2[nH]1 [Compound 124, (2S,4R)-N-((R)-1-(1H-pyrrolo[3,2-c]pyridin-2-yl)ethyl)-1-(2-(5-(2-chloro-4-fluorophenyl)-1-oxoisoindolin-2-yl)acetyl)-4-(difluoromethoxy)pyrrolidine-2-carboxamide]	< 100
C[C@@]12C[C@@H]1N(C(=O)CNC(=O)CCCOc1ccccc1)[C@H](C(=O)NCCCn1ccnc1)C2 [Compound 59, (1S,3S,5S)-N-(3-(1H-imidazol-1-yl)propyl)-5-methyl-2-((4-phenoxybutanoyl)glycyl)-2-azabicyclo[3.1.0]hexane-3-carboxamide]	> 1000
O=C(NCC(=O)N1CC2(C[C@H]1C(=O)NCc1cc3ncccc3[nH]1)OCCO2)c1ccc2c(c1)-c1ccccc1C2(F)F [Compound 34, (S)-N-((1H-pyrrolo[3,2-b]pyridin-2-yl)methyl)-7-((9,9-difluoro-9H-fluorene-3-carbonyl)glycyl)-1,4-dioxa-7-azaspiro[4.4]nonane-8-carboxamide]	> 1000
C[C@@H](NC(=O)[C@@H]1C[C@@H](OC(F)F)CN1C(=O)CNC(=O)c1ccc(Oc2ccc(F)cc2)cc1)c1cc2cnccc2s1 [Compound 205, (2S,4R)-4-(difluoromethoxy)-1-((4-(4-fluorophenoxy)benzoyl)glycyl)-N-((R)-1-(thieno[3,2-c]pyridin-2-yl)ethyl)pyrrolidine-2-carboxamide]	100 to 1000
O=C(NCC(=O)N1CC2(C[C@H]1C(=O)NCc1cc3cnccc3[nH]1)OCCO2)c1ccc2[nH]c3ccccc3c2c1 [Compound 211, (S)-N-((1H-pyrrolo[3,2-c]pyridin-2-yl)methyl)-7-((9H-carbazole-3-carbonyl)glycyl)-1,4-dioxa-7-azaspiro[4.4]nonane-8-carboxamide]	< 100
C[C@@]12C[C@@H](C(=O)NCc3cc4cnccc4[nH]3)N(C(=O)CNC(=O)c3cccc(Oc4ccc(F)cc4)c3)[C@@H]1C2 [Compound 155, (1R,3S,5R)-N-((1H-pyrrolo[3,2-c]pyridin-2-yl)methyl)-2-((3-(4-fluorophenoxy)benzoyl)glycyl)-5-methyl-2-azabicyclo[3.1.0]hexane-3-carboxamide]	100 to 1000
C[C@@H](NC(=O)[C@@H]1C[C@]2(C)C[C@@H]2N1C(=O)CNC(=O)CCCOc1ccccc1)c1cc2cnccc2[nH]1 [Compound 56, (1S,3S,5S)-N-((R)-1-(1H-pyrrolo[3,2-c]pyridin-2-yl)ethyl)-5-methyl-2-((4-phenoxybutanoyl)glycyl)-2-azabicyclo[3.1.0]hexane-3-carboxamide]	100 to 1000
O=C(NCC(=O)N1C[C@H](OC(F)F)C[C@H]1C(=O)O)c1ccc(Oc2ccccc2)cc1 [Compound 118, (2S,4R)-4-(difluoromethoxy)-1-((4-phenoxybenzoyl)glycyl) pyrrolidine-2-carboxylic acid]	> 1000
C[C@@H](NC(=O)[C@@H]1C[C@@H](c2ncco2)CN1C(=O)CNC(=O)c1ccc2c(c1)Oc1ccccc1S2)c1cc2cnccc2[nH]1 [Compound 177, (2S,4R)-N-((R)-1-(1H-pyrrolo[3,2-c]pyridin-2-yl)ethyl)-4-(oxazol-2-yl)-1-((phenoxathiine-3-carbonyl)glycyl)pyrrolidine-2-carboxamide]	< 100
CO[C@@H]1C[C@@H](C(=O)N[C@H](C)c2cc3cnccc3[nH]2)N(C(=O)CNC(=O)c2ccc3c(c2)-c2ccccc2C3(F)F)C1 [Compound 71, (2S,4R)-N-((R)-1-(1H-pyrrolo[3,2-c]pyridin-2-yl)ethyl)-1-((9,9-difluoro-9H-fluorene-3-carbonyl)glycyl)-4-methoxypyrrolidine-2-carboxamide]	< 100
C[C@@H](NC(=O)[C@@H]1C[C@@H](OC(F)F)CN1C(=O)CNC(=O)c1ccc(-c2ccc(F)cc2F)cc1)c1cc2cnccc2[nH]1 [Compound 90, (2S,4R)-N-((R)-1-(1H-pyrrolo[3,2-c]pyridin-2-yl)ethyl)-1-((2′,4′′-difluoro-[1,1′-biphenyl]-4-carbonyl)glycyl)-4-(difluoromethoxy)pyrrolidine-2-carboxamide]	< 100
C[C@@H](NC(=O)[C@@H]1CC2(CN1C(=O)CNC(=O)c1ccc3c(c1)Oc1ccccc1S3)OCCO2)c1cc2cnccc2[nH]1 [Compound 47, (S)-N-((R)-1-(1H-pyrrolo[3,2-c]pyridin-2-yl)ethyl)-7-((phenoxathiine-3-carbonyl)glycyl)-1,4-dioxa-7-azaspiro[4.4]nonane-8-carboxamide]	< 100
C[C@H](NC(=O)[C@@H]1CC2(CN1C(=O)CNC(=O)c1ccc3c(c1)-c1ccccc1C3(F)F)OCCO2)c1cc2cnccc2[nH]1 [Compound 23, (S)-N-((S)-1-(1H-pyrrolo[3,2-c]pyridin-2-yl)ethyl)-7-((9,9-difluoro-9H-fluorene-3-carbonyl)glycyl)-1,4-dioxa-7-azaspiro[4.4]nonane-8-carboxamide]	> 1000
C[C@@H](NC(=O)[C@@H]1C[C@@H](c2ccccc2)CN1C(=O)CNC(=O)c1ccc2c(c1)Oc1ccccc1S2)c1cc2cnccc2[nH]1 [Compound 169, (2S,4S)-N-((R)-1-(1H-pyrrolo[3,2-c]pyridin-2-yl)ethyl)-1-((phenoxathiine-3-carbonyl)glycyl)-4-phenylpyrrolidine-2-carboxamide]	< 100
O=C(NCC(=O)N1C[C@H](OC(F)F)C[C@H]1C(=O)NCc1cnc2c(c1)NCC2)c1ccc2c(c1)Oc1ccccc1S2 [Compound 257, (2S,4R)-4-(difluoromethoxy)-N-((2,3-dihydro-1H-pyrrolo[3,2-b]pyridin-6-yl)methyl)-1-((phenoxathiine-3-carbonyl)glycyl)pyrrolidine-2-carboxamide]	> 1000
O=C(NCc1cc2cnccc2[nH]1)[C@@H]1C[C@@H](OC(F)F)CN1C(=O)CN1Cc2ncc(-c3ccc(F)cc3F)cc2C1=O [Compound 135, (2S,4R)-N-((1H-pyrrolo[3,2-c]pyridin-2-yl)methyl)-4-(difluoromethoxy)-1-(2-(3-(2,4-difluorophenyl)-5-oxo-5,7-dihydro-6H-pyrrolo[3,4-b]pyridin-6-yl)acetyl)pyrrolidine-2-carboxamide]	> 1000
C[C@@]12C[C@@H]1N(C(=O)CNC(=O)c1cccc(Oc3ccccc3)c1)[C@H](C(=O)NCc1cc3cnccc3s1)C2 [Compound 246, (1S,3S,5S)-5-methyl-2-((3-phenoxybenzoyl)glycyl)-N-(thieno[3,2-c]pyridin-2-ylmethyl)-2-azabicyclo[3.1.0]hexane-3-carboxamide]	< 100
O=C(NCC(=O)N1CC[C@H](c2ccccc2)[C@H]1C(=O)NCc1cc2cnccc2[nH]1)c1ccc2c(c1)Oc1ccccc1S2 [Compound 214, (2S,3R)-N-((1H-pyrrolo[3,2-c]pyridin-2-yl)methyl)-1-((phenoxathiine-3-carbonyl)glycyl)-3-phenylpyrrolidine-2-carboxamide]	> 1000
